Legend:
human PDE5 = target: T1, human PDE5 (Homo sapiens, UniProt O76074); assay: Inhibition of PDE5 activity (modified SPA test, human platelet lysate); assay type: biochemical; conditions: PDE5-containing human platelet lysate, 0.5 μM cGMP substrate, 37° C.
T1 construct: from tissue; host or cells: human platelets from fresh donor blood (10,000 g supernatant of sonified platelets)
Method: As a source for human PDE5, platelets were used. For that purpose, 150 ml fresh blood from human donors anticoagulated with citrate [final concentration 0.3% (w/v)] was centrifuged at 200 g for 10 min to obtain the so-called platelet-rich-plasma (PRP) as a supernatant. 1/10 volume of ACD solution (85 mM Na3-citrate, 111 mM D-glucose, 71 mM citric acid, pH 4.4) was added to 9/10 volume of PRP. After centrifugation (1,400 g, 10 min) the cell pellet was resuspended in 3 ml homogenization buffer (NaCl 140 mM, KCl 3.8 mM, EGTA 1 mM, MgCl2 1 mM, Tris-HCl 20 mM, beta-mercaptoethanol 1 mM, pH 8.2) plus protease-inhibitor mix giving rise to the final concentrations of 0.5 mM Pefablock (Roche), 10 μM Leupeptin, 5 μM Trypsininhibitor, 2 mM Benzamidin and 10 μM Pepstatin A. The suspension was sonified and thereafter centrifuged for 15 min at 10,000 g. The resulting supernatant (platelet lysate) was used for enzymatic testings.
PDE5A1 activity is inhibited by the compounds of the invention in a modified SPA (scintillation proximity assay) test, supplied by Amersham Biosciences (see procedural instructions “phosphodiesterase [3H]cAMP SPA enzyme assay, code TRKQ 7090”), carried out in 96-well microtitre plates (MTP's). The test volume is 100 μl and contains 20 mM Tris buffer (pH 7.4), 0.1 mg of BSA (bovine serum albumin)/ml, 5 mM Mg^2+, 1 μM motapizone, 10 nM PDE2 inhibitor BAY-60-7550, 0.5 μM cGMP (including about 50,000 cpm of [3H]cGMP as a tracer), 1 μl of the respective compound dilution in dimethylsulfoxide (DMSO) and sufficient PDE5-containing platelet lysat (10,000×g supernatant, see above) to ensure that 10-20 wt % of the cGMP is converted under the said experimental conditions. […] After a preincubation of 5 min at 37° C., the reaction was started by adding the substrate (cGMP) and the assay was incubated for a further 15 min; after that, it was stopped by adding SPA beads (50 μl). In accordance with the manufacturer's instructions, the SPA beads had previously been resuspended in water, but were then diluted 1:3 (v/v) in water; the diluted solution also contains 3 mM 8-methoxymethyl-3-isobutyl-1-methylxanthine (IBMX) to ensure a complete PDE activity stop. After the beads have been sedimented (>30 min), the MTP's are analyzed in commercially available luminescence detection devices. The corresponding IC50 values of the compounds for the inhibition of PDE activity are determined from the concentration-effect curves by means of non-linear regression.

SMILES | IC50 (human PDE5) [nM] | melting point
Cc1ccc(Cc2nc3c(c4c2[nH]c2ccccc24)C(=O)CC(C)(C)C3)cc1 [Example 25, 3,3-Dimethyl-6-(4-methyl-benzyl)-2,3,4,7-tetrahydro-indolo[2,3-c]quinolin-1-one] | 2.95 | 182 to 184 °C
CC1(C)Cc2nc(Cc3ccc(O)cc3)c3[nH]c4ccccc4c3c2C(O)C1 (centres unmarked) [Example 51, 6-(4-Hydroxy-benzyl)-3,3-dimethyl-2,3,4,7-tetrahydro-1H-indolo[2,3-c]quinolin-1-ol] | 5.5 | 212 °C
CC1(C)CC(=O)c2c(nc(Cc3ccc(F)cc3)c3[nH]c4ccccc4c23)C1 [Example 28, 6-(4-Fluoro-benzyl)-3,3-dimethyl-2,3,4,7-tetrahydro-indolo[2,3-c]quinolin-1-one] | 18.2 | 200 to 204 °C
O=C1CCCc2nc(Cc3ccc4c(c3)OCO4)c3[nH]c4ccccc4c3c21 [Example 18, 6-Benzo[1,3]dioxol-5-ylmethyl-2,3,4,7-tetrahydro-indolo[2,3-c]quinolin-1-one] | 3.63 | 194 to 197 °C
CC(=O)Nc1ccc(Cc2nc3c(c4c2[nH]c2ccccc24)C(O)CC(C)(C)C3)cc1 (centres unmarked) [Example 63, N-[4-(1-Hydroxy-3,3-dimethyl-2,3,4,7-tetrahydro-1H-indolo[2,3-c]quinolin-6-ylmethyl)-phenyl]-acetamide] | 46.8 | 195 to 197 °C
CC1(C)CC(=O)c2c(nc(Cc3cccc(F)c3)c3[nH]c4ccccc4c23)C1 [Example 34, 6-(3-Fluoro-benzyl)-3,3-dimethyl-2,3,4,7-tetrahydro-indolo[2,3-c]quinolin-1-one] | 4.9 | 184 to 192 °C (dec.)
CC(C)c1ccc(Cc2nc3c(c4c2[nH]c2ccccc24)C(=O)CC(C)(C)C3)cc1 [Example 14, 6-(4-Isopropyl-benzyl)-3,3-dimethyl-2,3,4,7-tetrahydro-indolo[2,3-c]quinolin-1-one] | 347 | 153 to 155 °C
O=C1CCCc2nc(Cc3ccc([N+](=O)[O-])cc3)c3[nH]c4ccccc4c3c21 [Example 26, 6-(4-Nitro-benzyl)-2,3,4,7-tetrahydro-indolo[2,3-c]quinolin-1-one] | 355 | 138 to 140 °C
CC1(C)CC(=O)c2c(nc(Cc3cccc(Br)c3)c3[nH]c4ccccc4c23)C1 [Example 21, 6-(3-Bromo-benzyl)-3,3-dimethyl-2,3,4,7-tetrahydro-indolo[2,3-c]quinolin-1-one] | 126 | 215 to 219 °C
COc1c(F)cc(Cc2nc3c(c4c2[nH]c2ccccc24)C(O)CC(C)(C)C3)cc1F (centres unmarked) [Example 73, 6-(3,5-Difluoro-4-methoxy-benzyl)-3,3-dimethyl-2,3,4,7-tetrahydro-1H-indolo[2,3-c]quinolin-1-ol] | 0.2 | 131 to 133 °C
O=C1CCCc2nc(Cc3ccccc3)c3[nH]c4ccccc4c3c21 [Example 3, 6-Benzyl-2,3,4,7-tetrahydro-indolo[2,3-c]quinolin-1-one] | 19.5 | 205 °C
COc1ccc(Cc2nc3c(c4c2[nH]c2ccccc24)C(=O)CC(C)(C)C3)cc1Cl [Example 15, 6-(3-Chloro-4-methoxy-benzyl)-3,3-dimethyl-2,3,4,7-tetrahydro-indolo[2,3-c]quinolin-1-one] | 6.31 | 209 to 211 °C
CC1(C)CC(=O)c2c(nc(Cc3cccc(Cl)c3)c3[nH]c4ccccc4c23)C1 [Example 35, 6-(3-Chloro-benzyl)-3,3-dimethyl-2,3,4,7-tetrahydro-indolo[2,3-c]quinolin-1-one] | 37.2 | 206 to 209 °C
COc1ccc(Cc2nc3c(c4c2[nH]c2ccccc24)C(O)CC(C)(C)C3)c(F)c1F (centres unmarked) [Example 74, 6-(2,3-Difluoro-4-methoxy-benzyl)-3,3-dimethyl-2,3,4,7-tetrahydro-1H-indolo[2,3-c]quinolin-1-ol] | 0.324 | 197 to 198 °C
CC(=O)Nc1ccc(Cc2nc3c(c4c2[nH]c2ccccc24)C(O)CCC3)cc1 (centres unmarked) [Example 69, N-[4-(1-Hydroxy-2,3,4,7-tetrahydro-1H-indolo[2,3-c]quinolin-6-ylmethyl)-phenyl]-acetamide] | 302 | 195 to 197 °C
CC1(C)Cc2nc(Cc3cccc([N+](=O)[O-])c3)c3[nH]c4ccccc4c3c2C(O)C1 (centres unmarked) [Example 56, 3,3-Dimethyl-6-(3-nitro-benzyl)-2,3,4,7-tetrahydro-1H-indolo[2,3-c]quinolin-1-ol] | 191 | 228 to 230 °C
CC1(C)Cc2nc(Cc3cc(F)cc(F)c3)c3[nH]c4ccccc4c3c2[C@H](O)C1 [Example 84, (R)-6-(3,5-Difluoro-benzyl)-3,3-dimethyl-2,3,4,7-tetrahydro-1H-indolo[2,3-c]quinolin-1-ol] | 398 | 129 to 131 °C
CC1(C)CC(=O)c2c(nc(Cc3cc(F)cc(Cl)c3)c3[nH]c4ccccc4c23)C1 [Example 36, 6-(3-Chloro-5-fluoro-benzyl)-3,3-dimethyl-2,3,4,7-tetrahydro-indolo[2,3-c]quinolin-1-one] | 234 | 219 to 221 °C
CCC(=O)Nc1ccc(Cc2nc3c(c4c2[nH]c2ccccc24)C(O)CC(C)(C)C3)cc1 (centres unmarked) [Example 60, N-[4-(1-Hydroxy-3,3-dimethyl-2,3,4,7-tetrahydro-1H-indolo[2,3-c]quinolin-6-ylmethyl)-phenyl]-propionamide] | 70.8 | 165 to 168 °C
CC1(C)Cc2nc(Cc3cc(F)cc(F)c3)c3[nH]c4ccccc4c3c2[C@@H](O)C1 [Example 86, (S)-6-(3,5-Difluoro-benzyl)-3,3-dimethyl-2,3,4,7-tetrahydro-1H-indolo[2,3-c]quinolin-1-ol] | 3.16 | 130 to 131 °C
COc1ccc(Cc2nc3c(c4c2[nH]c2ccccc24)[C@H](O)CC(C)(C)C3)cc1F [Example 82, (R)-6-(3-Fluoro-4-methoxy-benzyl)-3,3-dimethyl-2,3,4,7-tetrahydro-1H-indolo[2,3-c]quinolin-1-ol] | 31.6 | 164 to 166 °C
COc1ccc(Cc2nc3c(c4c2[nH]c2ccccc24)C(O)CCC3)cc1F (centres unmarked) [Example 71, 6-(3-Fluoro-4-methoxy-benzyl)-2,3,4,7-tetrahydro-1H-indolo[2,3-c]quinolin-1-ol] | 2.51 | 118 to 120 °C
CC1(C)Cc2nc(Cc3ccc(N)cc3)c3[nH]c4ccccc4c3c2C(O)C1 (centres unmarked) [Example 54, 6-(4-Amino-benzyl)-3,3-dimethyl-2,3,4,7-tetrahydro-1H-indolo[2,3-c]quinolin-1-ol] | 26.9 | 206 to 208 °C
COc1ccc(Cc2nc3c(c4c2[nH]c2ccccc24)CCCC3)cc1F [Example 30, 6-(3-Fluoro-4-methoxy-benzyl)-2,3,4,7-tetrahydro-1H-indolo[2,3-c]quinoline] | 3.98 | 118 to 120 °C
CC1(C)Cc2nc(Cc3ccc(F)c(F)c3)c3[nH]c4ccccc4c3c2C(O)C1 (centres unmarked) [Example 66, 6-(3,4-Difluoro-benzyl)-3,3-dimethyl-2,3,4,7-tetrahydro-1H-indolo[2,3-c]quinolin-1-ol] | 16.6 | 121 to 128 °C
CC1(C)Cc2nc(Cc3cccc(Br)c3)c3[nH]c4ccccc4c3c2C(O)C1 (centres unmarked) [Example 62, 6-(3-Bromo-benzyl)-3,3-dimethyl-2,3,4,7-tetrahydro-1H-indolo[2,3-c]quinolin-1-ol] | 50.1 | 118 to 125 °C
CC1(C)Cc2nc(Cc3cccc(F)c3)c3[nH]c4ccccc4c3c2[C@@H](O)C1 [Example 93, (S)-6-(3-Fluoro-benzyl)-3,3-dimethyl-2,3,4,7-tetrahydro-1H-indolo[2,3-c]quinolin-1-ol] | 3.89 | 123 to 126 °C
COc1ccc(Cc2nc3c(c4c2[nH]c2ccccc24)[C@H](O)CC(C)(C)C3)cc1 [Example 80, (R)-6-(4-Methoxy-benzyl)-3,3-dimethyl-2,3,4,7-tetrahydro-1H-indolo[2,3-c]quinolin-1-ol] | 100 | 118 to 120 °C

— patent US20100120730A1, “6-BENZYL-2,3,4,7-TETRAHYDRO-INDOLO [2,3-C] QUINOLINE COMPOUNDS USEFUL AS PDE5 INHIBITORS” (NYCOMED GmbH, priority 2007, published 2010)
